Source: PMC5677563 (Inorganic chemistry, 2017)

Biological target: T1, cytochrome c′ (AXCP) (Achromobacter xylosoxidans, UniProt P00138, L16G)
T1 sequence (P00138 1-127 L16G): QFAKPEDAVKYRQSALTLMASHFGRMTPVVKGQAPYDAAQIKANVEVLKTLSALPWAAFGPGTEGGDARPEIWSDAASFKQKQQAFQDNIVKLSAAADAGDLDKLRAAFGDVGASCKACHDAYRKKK
Assay: UV-vis titration
Assay type: binding

## O=NO [nitrite]
  Kd: 500 ± 150 µM
